The test concerns the target CK2A1 (CK2α/β) (Homo sapiens, UniProt P68400). As to the kind of experiment: CK2 kinase assay, CK2A1 (CK2α/β). The note with it: Table A; read-out: CK2A1 (CK2α/β) (IC50). The test is classed as biochemical.
Chain of CK2A1 (CK2α/β) (P68400 whole entry, species assumed): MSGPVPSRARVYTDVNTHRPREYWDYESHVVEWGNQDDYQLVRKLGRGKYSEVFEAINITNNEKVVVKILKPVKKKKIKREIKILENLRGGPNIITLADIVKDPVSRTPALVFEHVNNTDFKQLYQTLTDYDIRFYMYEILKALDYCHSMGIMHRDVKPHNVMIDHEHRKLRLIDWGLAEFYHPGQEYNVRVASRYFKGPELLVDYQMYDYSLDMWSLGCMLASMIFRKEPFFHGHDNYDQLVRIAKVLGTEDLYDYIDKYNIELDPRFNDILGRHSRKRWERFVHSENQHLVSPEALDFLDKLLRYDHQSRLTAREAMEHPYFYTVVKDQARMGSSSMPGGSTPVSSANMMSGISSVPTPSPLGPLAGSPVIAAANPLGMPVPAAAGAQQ
Chain of CK2A1 (CK2α/β) (P67870 whole entry partner, species assumed): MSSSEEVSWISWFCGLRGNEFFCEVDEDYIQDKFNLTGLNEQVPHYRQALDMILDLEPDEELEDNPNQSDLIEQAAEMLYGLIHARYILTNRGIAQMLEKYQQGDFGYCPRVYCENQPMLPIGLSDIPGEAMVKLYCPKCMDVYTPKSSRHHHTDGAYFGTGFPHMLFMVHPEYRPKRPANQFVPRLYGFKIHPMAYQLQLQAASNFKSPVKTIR
As for `N#Cc1cc(CN=[N+]=[N-])c(Cl)c(Nc2nc(NC3CC3)c3ncc(C#N)n3n2)c1` [Example 683, 2-((3-(azidomethyl)-2-chloro-5-cyanophenyl)amino)-4-(cyclopropylamino)imidazo[2,1-f][1,2,4]triazine-7-carbonitrile], the IC50 turned out to be 0.14 nM.

Turning to `N#Cc1cc(Nc2nc(NC3CC3)c3ncc(C#N)n3n2)c(Cl)c(C(O)CN2CCOCC2)c1` (centres unmarked) [Example 684, 2-((2-chloro-5-cyano-3-(1-hydroxy-2-morpholinoethyl)phenyl)amino)-4-(cyclopropylamino)imidazo[2,1-f][1,2,4]triazine-7-carbonitrile], the IC50 came to 1.34 nM.

`COCCNCC(O)c1cc(C#N)cc(Nc2nc(NC3CC3)c3ncc(C#N)n3n2)c1Cl` (centres unmarked) [Example 685, 2-((2-chloro-5-cyano-3-(1-hydroxy-2-((2-methoxyethyl)amino)ethyl)phenyl)amino)-4-(cyclopropylamino)imidazo[2,1-f][1,2,4]triazine-7-carbonitrile]: the IC50 was determined as 0.95 nM.

Consider `CN1CCN(CC(O)c2cc(C#N)cc(Nc3nc(NC4CC4)c4ncc(C#N)n4n3)c2Cl)CC1` (centres unmarked) [Example 686, 2-((2-chloro-5-cyano-3-(1-hydroxy-2-(4-methylpiperazin-1-yl)ethyl)phenyl)amino)-4-(cyclopropylamino)imidazo[2,1-f][1,2,4]triazine-7-carbonitrile], for which the IC50 was 1.3 nM.

As for `CS(=O)(=O)N1CCN(CC(O)c2cc(C#N)cc(Nc3nc(NC4CC4)c4ncc(C#N)n4n3)c2Cl)CC1` (centres unmarked) [Example 687, 2-((2-chloro-5-cyano-3-(1-hydroxy-2-(4-(methylsulfonyl)piperazin-1-yl)ethyl)phenyl)amino)-4-(cyclopropylamino)imidazo[2,1-f][1,2,4]triazine-7-carbonitrile], the IC50 came to 0.99 nM.

Regarding `N#Cc1cc(Nc2nc(NC3CC3)c3ncc(C#N)n3n2)c(Cl)c(C(O)CN2CCC(O)CC2)c1` (centres unmarked) [Example 688, 2-((2-chloro-5-cyano-3-(1-hydroxy-2-(4-hydroxypiperidin-1-yl)ethyl)phenyl)amino)-4-(cyclopropylamino)imidazo[2,1-f][1,2,4]triazine-7-carbonitrile], the IC50 was determined as 2.4 nM.

Regarding `CC(=O)N1CCN(CC(O)c2cc(C#N)cc(Nc3nc(NC4CC4)c4ncc(C#N)n4n3)c2Cl)CC1` (centres unmarked) [Example 689, 2-((3-(2-(4-acetylpiperazin-1-yl)-1-hydroxyethyl)-2-chloro-5-cyanophenyl)amino)-4-(cyclopropylamino)imidazo[2,1-f][1,2,4]triazine-7-carbonitrile], the IC50 stood at 1 nM.

As to `CC1(O)CCN(CC(O)c2cc(C#N)cc(Nc3nc(NC4CC4)c4ncc(C#N)n4n3)c2Cl)CC1` (centres unmarked) [Example 690, 2-((2-chloro-5-cyano-3-(1-hydroxy-2-(4-hydroxy-4-methylpiperidin-1-yl)ethyl)phenyl)amino)-4-(cyclopropylamino)imidazo[2,1-f][1,2,4]triazine-7-carbonitrile], the IC50 stood at 3.4 nM.

As for `CC(C)(O)CNCC(O)c1cc(C#N)cc(Nc2nc(NC3CC3)c3ncc(C#N)n3n2)c1Cl` (centres unmarked) [Example 691, 2-((2-chloro-5-cyano-3-(1-hydroxy-2-((2-hydroxy-2-methylpropyl)amino)ethyl)phenyl)amino)-4-(cyclopropylamino)imidazo[2,1-f][1,2,4]triazine-7-carbonitrile], the IC50 was determined as 1.81 nM.

With `CC(C)(C)NCC(O)c1cc(C#N)cc(Nc2nc(NC3CC3)c3ncc(C#N)n3n2)c1Cl` (centres unmarked) [Example 692, 2-((3-(2-(tert-butylamino)-1-hydroxyethyl)-2-chloro-5-cyanophenyl)amino)-4-(cyclopropylamino)imidazo[2,1-f][1,2,4]triazine-7-carbonitrile], the IC50 is 1.81 nM.

For `CC(C)(CO)NCC(O)c1cc(C#N)cc(Nc2nc(NC3CC3)c3ncc(C#N)n3n2)c1Cl` (centres unmarked) [Example 693, 2-((2-chloro-5-cyano-3-(1-hydroxy-2-((1-hydroxy-2-methylpropan-2-yl)amino)ethyl)phenyl)amino)-4-(cyclopropylamino)imidazo[2,1-f][1,2,4]triazine-7-carbonitrile], the IC50 was 1.1 nM.

Regarding `CN(CC1CN(c2cc(C#N)cc(Nc3nc(NC4CC4)c4ncc(C#N)n4n3)c2Cl)CCO1)CC(C)(C)O` (centres unmarked) [Example 701, 2-{[2-chloro-5-cyano-3-(2-{[(2-hydroxy-2-methylpropyl)(methyl)amino]methyl}morpholin-4-yl)phenyl]amino}-4-(cyclopropylamino)imidazo[2,1-f][1,2,4]triazine-7-carbonitrile], the IC50 worked out at 2.68 nM.

For the compound `COCCN(C)CC1CN(c2cc(C#N)cc(Nc3nc(NC4CC4)c4ncc(C#N)n4n3)c2Cl)CCO1` (centres unmarked) [Example 702, 2-{[2-chloro-5-cyano-3-(2-{[(2-methoxyethyl)(methyl)amino]methyl}morpholin-4-yl)phenyl]amino}-4-(cyclopropylamino)imidazo[2,1-f][1,2,4]triazine-7-carbonitrile], the IC50 stood at 2.48 nM.

Turning to `CCNC(=O)OCC1CN(c2cc(C#N)cc(Nc3nc(NC4CC4)c4ncc(C#N)n4n3)c2Cl)CCN1C` (centres unmarked) [Example 703, [4-(2-chloro-5-cyano-3-{[7-cyano-4-(cyclopropylamino)imidazo[2,1-f][1,2,4]triazin-2-yl]amino}phenyl)-1-methylpiperazin-2-yl]methyl N-ethylcarbamate], the IC50 amounted to 1.82 nM.

As to `COC[C@H](NC[C@H]1CN(c2cc(C#N)cc(Nc3nc(NC4CC4)c4ncc(C#N)n4n3)c2Cl)CCO1)C1CC1` [Example 704, 2-({2-chloro-5-cyano-3-[(2S)-2-({[(1R)-1-cyclopropyl-2-methoxyethyl]amino}methyl)morpholin-4-yl]phenyl}amino)-4-(cyclopropylamino)imidazo[2,1-f][1,2,4]triazine-7-carbonitrile], the IC50 was 1.4 nM.

`N#Cc1cc(Nc2nc(NC3CC3)c3ncc(C#N)n3n2)c(Cl)c(N2CCOC(CN3CC(F)C3)C2)c1` (centres unmarked) [Example 705, 2-[(2-chloro-5-cyano-3-{2-[(3-fluoroazetidin-1-yl)methyl]morpholin-4-yl}phenyl)amino]-4-(cyclopropylamino)imidazo[2,1-f][1,2,4]triazine-7-carbonitrile]: the IC50 came out at 0.89 nM.

As for `COC[C@H](NC[C@H]1CN(c2cc(C#N)cc(Nc3nc(NC4CC4)c4ncc(C#N)n4n3)c2Cl)CCN1C)C1CC1` [Example 706, 2-({2-chloro-5-cyano-3-[(3S)-3-({[(1R)-1-cyclopropyl-2-methoxyethyl]amino}methyl)-4-methylpiperazin-1-yl]phenyl}amino)-4-(cyclopropylamino)imidazo[2,1-f][1,2,4]triazine-7-carbonitrile], the IC50 is 1.76 nM.

Turning to `COCCN(C)CC1CN(c2cc(C#N)cc(Nc3nc(NC4CC4)c4ncc(C#N)n4n3)c2Cl)CCN1C` (centres unmarked) [Example 707, 2-{[2-chloro-5-cyano-3-(3-{[(2-methoxyethyl)(methyl)amino]methyl}-4-methylpiperazin-1-yl)phenyl]amino}-4-(cyclopropylamino)imidazo[2,1-f][1,2,4]triazine-7-carbonitrile], the IC50 was found to be 1.35 nM.

Take `CN1CCN(c2cc(C#N)cc(Nc3nc(NC4CC4)c4ncc(C#N)n4n3)c2Cl)CC1CN1CC(F)C1` (centres unmarked) [Example 708, 2-[(2-chloro-5-cyano-3-{3-[(3-fluoroazetidin-1-yl)methyl]-4-methylpiperazin-1-yl}phenyl)amino]-4-(cyclopropylamino)imidazo[2,1-f][1,2,4]triazine-7-carbonitrile]: the IC50 came to 0.52 nM.

Take `CC(C)(O)CNCC1CN(c2cc(C#N)cc(Nc3nc(NC4CC4)c4ncc(C#N)n4n3)c2Cl)CCO1` (centres unmarked) [Example 709, 2-{[2-chloro-5-cyano-3-(2-{[(2-hydroxy-2-methylpropyl)amino]methyl}morpholin-4-yl)phenyl]amino}-4-(cyclopropylamino)imidazo[2,1-f][1,2,4]triazine-7-carbonitrile]: the IC50 is 2.94 nM.

Turning to `COC(=O)NCC1CN(c2cc(C#N)cc(Nc3nc(NC4CC4)c4ncc(C#N)n4n3)c2Cl)CCO1` (centres unmarked) [Example 710, methyl N-{[4-(2-chloro-5-cyano-3-{[7-cyano-4-(cyclopropylamino)imidazo[2,1-f][1,2,4]triazin-2-yl]amino}phenyl)morpholin-2-yl]methyl}carbamate], the IC50 came out at 0.75 nM.

On to `CCNC(=O)NCC1CN(c2cc(C#N)cc(Nc3nc(NC4CC4)c4ncc(C#N)n4n3)c2Cl)CCO1` (centres unmarked) [Example 711, 1-{[4-(2-chloro-5-cyano-3-{[7-cyano-4-(cyclopropylamino)imidazo[2,1-f][1,2,4]triazin-2-yl]amino}phenyl)morpholin-2-yl]methyl}-3-ethylurea], for which the IC50 was 2.64 nM.

Regarding `CC(=O)NCC1CN(c2cc(C#N)cc(Nc3nc(NC4CC4)c4ncc(C#N)n4n3)c2Cl)CCO1` (centres unmarked) [Example 712, N-{[4-(2-chloro-5-cyano-3-{[7-cyano-4-(cyclopropylamino)imidazo[2,1-f][1,2,4]triazin-2-yl]amino}phenyl)morpholin-2-yl]methyl}acetamide], the IC50 was 1.18 nM.

Consider `COC(=O)NCC1CN(c2cc(C#N)cc(Nc3nc(NC4CC4)c4ncc(C#N)n4n3)c2Cl)CCN1C` (centres unmarked) [Example 713, methyl N-{[4-(2-chloro-5-cyano-3-{[7-cyano-4-(cyclopropylamino)imidazo[2,1-f][1,2,4]triazin-2-yl]amino}phenyl)-1-methylpiperazin-2-yl]methyl}carbamate], for which the IC50 was determined as 5.48 nM.

As for `CN1CC(N(C)C2CCN(c3cc(C#N)cc(Nc4nc(NC5CC5)c5ncc(C#N)n5n4)c3Cl)CC2)CC1=O` (centres unmarked) [Example 714, 2-((2-Chloro-5-cyano-3-(4-(methyl(1-methyl-5-oxopyrrolidin-3-yl)amino)piperidin-1-yl)phenyl)amino)-4-(cyclopropylamino)imidazo[2,1-f][1,2,4]triazine-7-carbonitrile], the IC50 was determined as 44.6 nM.

For `CCN(C1CCN(c2cc(C#N)cc(Nc3nc(NC4CC4)c4ncc(C#N)n4n3)c2Cl)CC1)C1CC(=O)N(C)C1` (centres unmarked) [Example 715, 2-[(2-chloro-5-cyano-3-{4-[ethyl(1-methyl-5-oxopyrrolidin-3-yl)amino]piperidin-1-yl}phenyl)amino]-4-(cyclopropylamino)imidazo [2,1-f][1,2,4]triazine-7-carbonitrile], the IC50 was 10.8 nM.
